Where two headings read alike, the source gives them in different places.
Legend:
[1] = molecular target: T1, hCB2R (Homo sapiens, UniProt P34972); assay: [^3H]CP55,940 competition (radioligand displacement) binding to CB2R; settings: for CB2R [^3H]CP55,940 Emin: bottom of the concentration–response curve, mean ± SEM
T1 construct: host or cells: CHO-K1 (PathHunter)

[2] = molecular target: T1, hCB2R; assay: HitHunter inhibition of FSK-stimulated cAMP, CB2R; type: cell-based
[3] = molecular target: T1, hCB2R; assay: PathHunter βarrestin2 recruitment, CB2R; type: cell-based; settings: for βarrestin2 recruitment to CB2R, activity in words: relative to CP55,940
[4] = molecular target: T1, hCB2R; assay: CB2R bias analysis (operational model, cAMP inhibition vs βarrestin2); type: cell-based; settings: CP55,940 as reference agonist; >0 cAMP bias, <0 βarrestin2 bias
Protocol: (§1) Estimates of Ki, EC50, Emin, and Emax were determined using non-linear regression with variable slope (four parameters) (GraphPad, Prism, v. 8.0). […] One-way analysis of variance (ANOVA), followed by Tukey’s post-hoc test, was used for statistical analyses (p < 0.05 determined to be significant); and Bartlett’s test was used to confirm homogeneity of variance (GraphPad).

[5] = test system: male C57Bl/6 mice; assay: Elevated plus maze (EPM); type: in vivo; settings: 1.0 mg/kg i.p., 30 min after treatment, 5 min trial; for EPM total arm entries: vs vehicle
Protocol: Adult male C57BL/6 mice aged 6–10 weeks (mean weight 24 ± 0.5 g) were purchased from Charles River Labs (Senneville, QC). Animals were group housed (three per cage) with ad libitum access to food, water, and environmental enrichment and maintained on a 12 h light/dark cycle. Mice were randomly assigned to receive i.p. injections of vehicle (1:1:18 ethanol:emulphor:saline) or 0.1–10 mg/kg SCRA (n ≥ 4 per group). All protocols have been described previously and were in accordance with the guidelines detailed by the Canadian Council on Animal Care and approved by the Animal Research Ethics Board and the Scientific Merit Review Committee for Animal Behaviour at the University of Saskatchewan. The following steps were taken to ensure our study was in keeping with the ARRIVE guidelines: (1) power analyses were conducted to determine the minimum number of animals required for the study; (2) animals were purchased—rather than bred—to limit animal waste; and (3) all assessments of animal behaviour were made by individuals blinded to the treatment group,[57].
EPM was conducted according to methods adapted from Marks et al.. The EPM was built from a plywood base painted blue with blue corrugated plastic floor and walls. The floor of the maze was composed of perpendicular interlocking arms (110 cm long × 10 cm wide) with two arms having 45 cm walls (closed arms) and two arms having no walls and a 0.5 cm edge (open arms), all elevated 45 cm from the ground. Trials began with the mouse in the central zone facing an open arm. Trials lasted 5 min and began 30 min after SCRA treatment. An arm entry was considered to be all four limbs leaving the central zone. Arm entries and the percent time spent in open versus closed arms were recorded by an observer blinded to the treatment group. Less time in the open arms and more time in the closed arms was used as a model of anxiogenic behaviour.

[6] = molecular target: T2, hCB1R (Homo sapiens, UniProt P21554); assay: biochemical; type: binding
T2 construct: expressed in transfected cells; host or cells: CHO-K1
T2 sequence (P21554 whole entry): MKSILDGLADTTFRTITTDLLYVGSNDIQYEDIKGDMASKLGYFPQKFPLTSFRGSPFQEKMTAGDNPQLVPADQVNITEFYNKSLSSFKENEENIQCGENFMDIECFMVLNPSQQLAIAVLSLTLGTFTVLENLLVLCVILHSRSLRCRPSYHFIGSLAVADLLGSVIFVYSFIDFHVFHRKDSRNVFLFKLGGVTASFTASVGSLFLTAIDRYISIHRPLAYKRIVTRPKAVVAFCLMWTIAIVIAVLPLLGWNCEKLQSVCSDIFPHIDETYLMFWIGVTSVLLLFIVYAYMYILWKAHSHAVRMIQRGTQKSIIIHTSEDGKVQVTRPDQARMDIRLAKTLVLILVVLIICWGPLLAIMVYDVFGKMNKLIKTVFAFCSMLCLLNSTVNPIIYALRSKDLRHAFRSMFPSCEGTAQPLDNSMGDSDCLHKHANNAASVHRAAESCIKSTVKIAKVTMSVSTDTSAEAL

[7] = molecular target: T2, hCB1R; assay: cell-based; type: cell-based; settings: for Emax: read-out: CB1R cAMP Inhibition Emax
[8] = molecular target: T2, hCB1R; assay: cell-based; type: cell-based; settings: for Emax: read-out: CB1R βarrestin2 recruitment Emax; for βarrestin2 recruitment to CB1R, activity in words: relative to CP55940
[9] = molecular target: T2, hCB1R; assay: CB1R bias analysis (operational model, cAMP inhibition vs βarrestin2); type: cell-based; settings: CP55,940 as reference agonist; >0 cAMP bias, <0 βarrestin2 bias
Protocol: as §1

[10] = bottom of the concentration–response curve, mean ± SEM

T1 sequence (P34972 whole entry): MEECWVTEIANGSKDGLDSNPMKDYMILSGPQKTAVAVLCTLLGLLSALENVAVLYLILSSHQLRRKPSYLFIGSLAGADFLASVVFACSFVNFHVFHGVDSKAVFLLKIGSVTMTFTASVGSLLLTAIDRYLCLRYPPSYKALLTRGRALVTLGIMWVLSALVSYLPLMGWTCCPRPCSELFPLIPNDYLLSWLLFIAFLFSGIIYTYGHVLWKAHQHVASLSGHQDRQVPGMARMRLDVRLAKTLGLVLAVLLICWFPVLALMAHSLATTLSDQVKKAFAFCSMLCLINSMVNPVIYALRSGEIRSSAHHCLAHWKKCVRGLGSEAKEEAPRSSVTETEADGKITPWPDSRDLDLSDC

Compound | CB2R [^3H]CP55,940 Emin [1] | Emax [2] | Emax [3] | βarrestin2 recruitment to CB2R, activity in words [3] | CB2R bias between cAMP inhibition and βarrestin2 recruitment, ∆∆LogR (cAMP—βarr2), in words [4] | EPM total arm entries [5] | CB1R [^3H]CP55,940 Emin [6, 10] | Emax [7] | Emax [8] | βarrestin2 recruitment to CB1R, activity in words [8] | Ki [1] | other results
CCCCCc1cc(O)c2c(c1)OC(C)(C)[C@@H]1CCC(C)=C[C@@H]21 [∆^9-THC, ∆^9-tetrahydrocannabinol, reference compound] | 65 ± 7.6 % | 48 ± 3.8% | 58 ± 1.1% | significantly lower efficacy, but similar potency | did not display a bias | did not change total arm entries | – | – | – | – | – | CB2R-dependent inhibition of FSK-stimulated cAMP, activity in words ([2]; relative to CP55,940): significantly lower efficacy; EPM open arm entries [5]: increased open arm entry; EPM time in the open arms [5]: greater amount of time spent in the open arms
CCC(Cl)CCn1nc(C(=O)NC(C(N)=O)C(C)C)c2ccccc21 (centres unmarked) [3-chloro AB-PINACA] | 84 ± 4.3 % | 87 ± 15% | 130 ± 4.5% | greater potency and produced supramaximal EMax responses | significant bias toward the recruitment of βarrestin2 | – | 65 ± 5.1 % | 94 ± 2.8% | 340 ± 11% | greater potency and produced supramaximal EMax responses | 52 nM | Ki [6]: 170 nM; CB1R versus CB2R selectivity, cAMP inhibition potency ([7]; CB1R vs CB2R): more potent at CB1R relative to CB2R; EC50 ([7]; CHO hCB1R, 10 µM FSK, 90 min, value with 95% CI, read-out: CB1R cAMP Inhibition EC50): 0.04 nM; CB1R versus CB2R selectivity, βarrestin2 recruitment ([8]; CB1R vs CB2R): more potent for CB2R-dependent recruitment of βarrestin2 than CB1R-dependent recruitment of βarrestin2; EC50 ([8]; CHO hCB1R, 90 min, value with 95% CI, read-out: CB1R βarrestin2 recruitment EC50): 140 nM; EC50 [2]: 19 nM; EC50 [3]: 8.8 nM; CB1R bias between cAMP inhibition and βarrestin2 recruitment, ∆∆LogR (cAMP—βarr2), in words [9]: did not display a bias
CCCCCn1c2ccccc2c2cc(C(=O)c3cccc4ccccc34)ccc21 [EG 018] | 53 ± 4.0 % | 85 ± 17% | 10 ± 1.9% | – | significant bias toward the inhibition of cAMP | – | 68 ± 6.1 % | 104 ± 18% | 5.2 ± 0.54% | Inactive at βarrestin2 | 1.9 nM | CB1R-dependent inhibition of FSK-stimulated cAMP, activity in words ([7]; relative to CP55940): significantly lower potency relative to CP55940, but retained full (i.e., 100%) efficacy; Affinity for CB2R compared with CP55,940, in words [1]: significantly greater affinity; EC50 ([2]; CHO hCB2R, 10 µM FSK, 90 min, value with 95% CI, read-out: CB2R cAMP Inhibition EC50): 51 nM; EC50 ([3]; CHO hCB2R, 90 min, value with 95% CI, read-out: CB2R βarrestin2 recruitment EC50): 770 nM
CCCCCCC(C)(C)c1ccc([C@@H]2C[C@H](O)CC[C@H]2CCCO)c(O)c1 [CP55,940, reference compound] | 0.0 ± 5.6% | – | – | – | – | reduced total arm entries | – | – | – | – | – | CB1R [^3H]CP55,940 Emin [6]: 0.0 ± 5.2%; EPM time in the central quadrant [5]: majority of their time in the central quadrant immobile
